Legend:
Assay type in all cases: physicochemical
[1] = Hygroscopicity of the product
[2] = Solubility in water of the product
[3] = Reducing power (DE, Somogyi-Nelson method)
Protocol: A reagent grade maltotetraose (purity 97.0% or higher), commercialized by Hayashibara Biochemical Laboratories Inc., Okayama, Japan, was prepared into 20% solution and admixed with two units/g-saccharide of non-reducing saccharide-forming enzyme, disclosed in Japanese Patent No. 44695/81, and followed enzymatic reaction at 46° C. for 48 hours, and the saccharide solution containing 79.8% of α-maltosyl α,α-trehalose, d.s.b., was obtained. After adjusting the pH to 6.0, the saccharide solution was admixed with 10 units/g-saccharide of β-amylase, commercialized by Nagase & Co., Ltd., Osaka, Japan, and followed enzymatic reaction at 50° C. for 48 hours to hydrolyze maltotetraose. After autoclaving at 120° C. for 10 minutes, the reaction mixture was cooled and filtrated. The resulting filtrate was subjected to a column chromatography using “XT-1016 (Na^+-form, degree of crosslinking 4%)”, a strong acid cation-exchanger resin commercialized by Rohm and Hass Japan K.K., Fukushima, Japan, and collected α-maltosyl α,α-trehalose high content fractions. The saccharide solution was purified, concentrated, and spray-dried to prepare an amorphous powdery α-maltosyl α,α-trehalose high content base for the powderization.

OC[C@H]1O[C@H](O[C@H]2O[C@H](CO)[C@@H](O[C@H]3O[C@H](CO)[C@@H](O[C@H]4O[C@H](CO)[C@@H](O)[C@H](O)[C@H]4O)[C@H](O)[C@H]3O)[C@H](O)[C@H]2O)[C@H](O)[C@@H](O)[C@@H]1O [Example A-5, α-maltosyl α,α-trehalose]
hygroscopicity [1]: low
solubility in water [2]: satisfactory
reducibility [3]: no reducibility
reducing power ([3]; Somogyi-Nelson method): less than the detection limit

— patent US20060177553A1, “Method of powdering nonsugar component and powdering base” (priority 2003, published 2006)
